Laboratory results: patent publication US11339167B2, “Substituted piperidines as kinase inhibitors” (Daewoong Pharmaceutical Co., Ltd., priority 2017, dated 2022)
Like-named read-outs stand apart in the source and are kept apart here.

Legend:
[1] = target: JAK3 kinase (Mus musculus (Mouse), UniProt Q62137); assay: JAK3-mediated cell assay (HT-2/IL-2 assay), STAT5 phosphorylation HTRF; assay type: cell-based; details: STAT5 phosphorylation induced by IL-2 (20 ng/ml, 10 minutes) in HT-2 cells, compound treatment 30 minutes
Experimental: The inhibitory activities against JAK3 kinase at the cellular level were measured for the compounds prepared in the Examples through in vitro analysis of STAT5 phosphorylation induced by IL-2 stimulation in HT-2 cells. Specifically, STAT5 phosphorylation was analyzed using HTRF® phospho-STAT5 (Tyr694) assay kit (Cisbio, 64AT5PEG), which was purchased from Cisbio. HT-2 cells were cultured for 2 hours in growth factor-free medium. The cultured HT-2 cells were dispensed into 96-well plates by 50 ul so as to be a density of 2.5×10^5 cells/well. The compounds prepared in the previous Examples were prepared so as to be finally a 0.3% DMSO aqueous solution, and HT-2 cells was treated with the compounds for 30 minutes. After the compound treatment, IL-2 was prepared so as to be finally a concentration of 20 ng/ml, and HT-2 cells was treated for 10 minutes. The cells were then disrupted by treating lysis buffers for 30 minutes. The level of STAT5 phosphorylation was measured according to the instructions of HTRF® phospho-STAT5 assay kit, and the inhibitory activity of the compounds according to the invention was calculated. For the analysis of the results of each compound, Microsoft Excel was used, and IC50 values were calculated by SigmaPlot software.

[2] = target: human JAK3 (Homo sapiens (Human), UniProt P52333); assay: JAK3 kinase inhibitory activity, ADP Glo kinase assay; assay type: biochemical; details: recombinant purified human JAK3, ATP 5 uM, Poly(Glu4,Tyr1) peptide, 1 hour 30° C.
Experimental: JAK3 and BTK kinases inhibitory activities were measured for the compounds prepared in the Examples through in vitro analysis on the ADP Glow (Glo) platform.
Specifically, the inhibitory activities against JAK3 and BTK kinase were measured using a JAK3 kinase assay kit (Promega, V9441) and a BTK kinase assay kit (Promega, V9071) which were purchased from Promega. […] After incubation (30° C.) for 1 hour, equivalent volume (25 uL per reaction) of ADP Glo was added and incubated (30° C.) for 40 minutes at room temperature. Then, a kinase detection reagent (50 uL per reaction) was added and incubated (30° C.) for 30 minutes at room temperature. The kinase activity was measured by chemiluminescence according to the instructions of ADP Glow kinase assay kit, and the inhibitory activity of the compounds according to the present disclosure was calculated.

[3] = target: human BTK (Homo sapiens (Human), UniProt Q06187); assay: BTK kinase inhibitory activity, ADP Glo kinase assay
[4] = read-out: BTK IC50, recombinant purified human BTK, ATP 10 uM, Poly(Glu4,Tyr1) peptide, 1 hour 30° C.

Chain of human JAK3 (P52333 whole entry): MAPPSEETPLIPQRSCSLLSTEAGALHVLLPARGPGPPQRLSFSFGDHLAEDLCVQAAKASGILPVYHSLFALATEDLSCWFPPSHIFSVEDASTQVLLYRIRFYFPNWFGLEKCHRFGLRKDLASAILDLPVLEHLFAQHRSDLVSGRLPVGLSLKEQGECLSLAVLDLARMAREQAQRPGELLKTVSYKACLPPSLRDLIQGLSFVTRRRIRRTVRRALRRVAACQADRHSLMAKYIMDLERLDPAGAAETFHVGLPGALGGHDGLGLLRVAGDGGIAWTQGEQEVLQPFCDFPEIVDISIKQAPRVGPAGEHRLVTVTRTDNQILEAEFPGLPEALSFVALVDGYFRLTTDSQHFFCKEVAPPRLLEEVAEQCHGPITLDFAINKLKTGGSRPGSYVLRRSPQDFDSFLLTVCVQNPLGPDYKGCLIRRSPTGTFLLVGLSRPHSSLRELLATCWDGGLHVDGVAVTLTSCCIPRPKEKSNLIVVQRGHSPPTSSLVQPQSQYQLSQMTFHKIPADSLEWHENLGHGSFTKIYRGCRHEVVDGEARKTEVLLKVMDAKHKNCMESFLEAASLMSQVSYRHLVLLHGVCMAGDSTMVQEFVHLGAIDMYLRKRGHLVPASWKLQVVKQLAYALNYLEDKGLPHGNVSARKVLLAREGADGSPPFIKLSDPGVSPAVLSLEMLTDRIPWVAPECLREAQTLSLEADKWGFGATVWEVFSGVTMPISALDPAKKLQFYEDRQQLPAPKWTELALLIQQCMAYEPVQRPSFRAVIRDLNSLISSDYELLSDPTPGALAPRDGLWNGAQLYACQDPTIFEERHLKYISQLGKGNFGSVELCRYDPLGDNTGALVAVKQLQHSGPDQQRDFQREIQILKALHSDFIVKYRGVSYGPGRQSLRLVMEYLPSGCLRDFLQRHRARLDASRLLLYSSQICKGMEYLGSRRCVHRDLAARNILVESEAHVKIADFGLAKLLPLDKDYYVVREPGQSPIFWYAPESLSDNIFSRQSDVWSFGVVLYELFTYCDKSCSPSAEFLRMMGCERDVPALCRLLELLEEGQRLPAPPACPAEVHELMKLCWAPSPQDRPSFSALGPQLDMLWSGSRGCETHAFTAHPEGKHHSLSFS
Chain of JAK3 kinase (Q62137 whole entry): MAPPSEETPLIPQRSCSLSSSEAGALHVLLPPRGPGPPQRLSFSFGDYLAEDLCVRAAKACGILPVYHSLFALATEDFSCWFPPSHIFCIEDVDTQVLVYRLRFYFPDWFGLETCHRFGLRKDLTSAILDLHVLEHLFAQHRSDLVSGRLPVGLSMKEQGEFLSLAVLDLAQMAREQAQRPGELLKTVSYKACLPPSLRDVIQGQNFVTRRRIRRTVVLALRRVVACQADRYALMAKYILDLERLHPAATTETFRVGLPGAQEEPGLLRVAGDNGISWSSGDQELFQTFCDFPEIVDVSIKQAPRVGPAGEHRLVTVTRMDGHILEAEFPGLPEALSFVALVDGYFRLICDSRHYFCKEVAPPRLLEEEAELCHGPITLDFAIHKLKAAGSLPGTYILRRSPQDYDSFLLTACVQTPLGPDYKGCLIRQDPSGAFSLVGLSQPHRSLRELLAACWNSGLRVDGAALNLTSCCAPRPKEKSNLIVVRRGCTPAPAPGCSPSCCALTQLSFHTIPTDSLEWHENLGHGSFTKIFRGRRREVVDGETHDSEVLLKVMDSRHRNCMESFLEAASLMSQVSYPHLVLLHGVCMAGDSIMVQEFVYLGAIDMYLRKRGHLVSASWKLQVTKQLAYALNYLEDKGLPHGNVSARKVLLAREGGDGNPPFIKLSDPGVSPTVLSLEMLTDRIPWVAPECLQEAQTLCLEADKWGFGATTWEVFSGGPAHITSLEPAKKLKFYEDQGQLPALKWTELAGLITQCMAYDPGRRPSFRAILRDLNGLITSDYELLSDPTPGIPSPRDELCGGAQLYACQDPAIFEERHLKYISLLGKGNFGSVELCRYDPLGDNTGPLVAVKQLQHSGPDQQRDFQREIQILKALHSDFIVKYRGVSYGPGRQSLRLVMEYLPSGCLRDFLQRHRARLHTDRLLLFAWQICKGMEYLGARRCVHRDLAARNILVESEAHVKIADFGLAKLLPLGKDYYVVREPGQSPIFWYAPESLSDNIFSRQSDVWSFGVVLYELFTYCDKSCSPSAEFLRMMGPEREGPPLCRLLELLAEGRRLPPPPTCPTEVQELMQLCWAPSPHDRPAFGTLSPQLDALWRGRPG
Chain of human BTK (Q06187 whole entry): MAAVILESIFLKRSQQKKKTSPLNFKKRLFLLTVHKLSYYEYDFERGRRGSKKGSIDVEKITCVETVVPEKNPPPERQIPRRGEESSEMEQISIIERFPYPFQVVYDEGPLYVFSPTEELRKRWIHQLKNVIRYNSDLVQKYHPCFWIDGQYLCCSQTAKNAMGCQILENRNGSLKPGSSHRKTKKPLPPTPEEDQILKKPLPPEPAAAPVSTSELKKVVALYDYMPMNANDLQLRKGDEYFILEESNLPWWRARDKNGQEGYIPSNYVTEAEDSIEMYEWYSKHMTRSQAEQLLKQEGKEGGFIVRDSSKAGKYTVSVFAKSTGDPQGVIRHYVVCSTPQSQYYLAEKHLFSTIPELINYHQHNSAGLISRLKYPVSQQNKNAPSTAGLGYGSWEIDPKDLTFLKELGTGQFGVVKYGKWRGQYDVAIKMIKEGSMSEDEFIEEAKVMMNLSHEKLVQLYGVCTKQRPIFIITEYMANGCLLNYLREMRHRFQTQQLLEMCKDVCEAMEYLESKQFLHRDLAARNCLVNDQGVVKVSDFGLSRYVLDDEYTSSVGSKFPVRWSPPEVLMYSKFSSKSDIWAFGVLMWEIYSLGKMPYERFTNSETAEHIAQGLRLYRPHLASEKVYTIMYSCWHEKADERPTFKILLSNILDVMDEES

SMILES	IC50 [1] [nM]	IC50 [2] [nM]	IC50 [3, 4] [nM]	IC50 [3] [nM]
C=CC(=O)N1CC[C@H](F)[C@@H](Oc2nc(Nc3cnn(CC)c3)nc3[nH]ccc23)C1 [Example 25, 1-((3S,4S)-3-((2-((1-ethyl-1H-pyrazol-4-yl)amino)-7H-pyrrolo[2,3-d]pyrimidin-4-yl)oxy)-4-fluoropiperidin-1-yl)prop-2-en-1-one]	32.3	0.2	1.2	
C=CC(=O)N1CC[C@H](F)[C@H](Oc2nc(Nc3cnn(CC)c3)nc3[nH]ccc23)C1 (racemic) [Example 4, 1-(cis-3-((2-((1-ethyl-1H-pyrazol-4-yl)amino)-7H-pyrrolo[2,3-d]pyrimidin-4-yl)oxy)-4-fluoropiperidin-1-yl)prop-2-en-1-one]	115	0.4		4.2
C=CC(=O)N1CC[C@@H](F)[C@H](Oc2nc(Nc3cnn(CC)c3)nc3[nH]ccc23)C1 (racemic) [Example 1, 1-(trans-3-((2-((1-ethyl-1H-pyrazol-4-yl)amino)-7H-pyrrolo[2,3-d]pyrimidin-4-yl)oxy)-4-fluoropiperidin-1-yl)prop-2-en-1-one]	67.4	0.3		2.4
C=CC(=O)N1CC[C@@H](F)[C@@H](Oc2nc(Nc3cnn(C4CC4)c3)nc3[nH]ccc23)C1 [Example 8, 1-((3S,4R)-3-((2-((1-cyclopropyl-1H-pyrazol-4-yl)amino)-7H-pyrrolo[2,3-d]pyrimidin-4-yl)oxy)-4-fluoropiperidin-1-yl)prop-2-en-1-one]		0.2	1.4	
C=CC(=O)N1CC[C@H](F)[C@H](Oc2nc(Nc3ccc4ncsc4c3)nc3[nH]ccc23)C1 [Example 34, 1-((3R,4S)-3-((2-(benzo[d]thiazol-6-ylamino)-7H-pyrrolo[2,3-d]pyrimidin-4-yl)oxy)-4-fluoropiperidin-1-yl)prop-2-en-1-one]		> 80	> 400	
C=CC(=O)N1CC[C@@H](F)[C@@H](Oc2nc(Nc3cnn(CC)c3)nc3[nH]ccc23)C1 [Example 5, 1-((3S,4R)-3-((2-((1-ethyl-1H-pyrazol-4-yl)amino)-7H-pyrrolo[2,3-d]pyrimidin-4-yl)oxy)-4-fluoropiperidin-1-yl)prop-2-en-1-one]	101	0.2	1.5	

Further compounds by falling IC50 [2], results first:

IC50 [1] [nM]	IC50 [2] [nM]	IC50 [3, 4] [nM]	IC50 [3] [nM]	SMILES
	15.5	> 400		C=CC(=O)N1CC[C@H](F)[C@H](Oc2nc(Nc3cnn(CC)c3)nc3[nH]ccc23)C1 [Example 28, 1-((3R,4S)-3-((2-((1-ethyl-1H-pyrazol-4-yl)amino)-7H-pyrrolo[2,3-d]pyrimidin-4-yl)oxy)-4-fluoropiperidin-1-yl)prop-2-en-1-one]
	0.4		2.8	C=CC(=O)N1CC[C@@H](F)[C@H](Oc2nc(Nc3cnn(C4CC4)c3)nc3[nH]cc(Cl)c23)C1 (racemic) [Example 10, 1-(trans-3-((5-chloro-2-((1-cyclopropyl-1H-pyrazol-4-yl)amino)-7H-pyrrolo[2,3-d]pyrimidin-4-yl)oxy)-4-fluoropiperidin-1-yl)prop-2-en-1-one]
	0.4	4.5		C=CC(=O)N1CC[C@@H](F)[C@@H](Oc2nc(Nc3cnn(CC(F)F)c3)nc3[nH]cc(C)c23)C1 [Example 20, 1-((3S,4R)-3-((2-((1-(2,2-difluoroethyl)-1H-pyrazol-4-yl)amino)-5-methyl-7H-pyrrolo[2,3-d]pyrimidin-4-yl)oxy)-4-fluoropiperidin-1-yl)prop-2-en-1-one]
72.3	0.3		2.1	C=CC(=O)N1CC[C@@H](F)[C@H](Oc2nc(Nc3cnn(CC)c3)nc3[nH]cc(Cl)c23)C1 (racemic) [Example 9, 1-(trans-3-((5-chloro-2-((1-ethyl-1H-pyrazol-4-yl)amino)-7H-pyrrolo[2,3-d]pyrimidin-4-yl)oxy)-4-fluoropiperidin-1-yl)prop-2-en-1-one]
96	0.3		2.5	C=CC(=O)N1CC[C@@H](F)[C@H](Oc2nc(Nc3cc(C)ns3)nc3[nH]cc(Cl)c23)C1 (racemic) [Example 11, 1-(trans-3-((5-chloro-2-((3-methylisothiazol-5-yl)amino)-7H-pyrrolo[2,3-d]pyrimidin-4-yl)oxy)-4-fluoropiperidin-1-yl)prop-2-en-1-one]
	0.2	1.5		C=CC(=O)N1CC[C@@H](F)[C@@H](Oc2nc(Nc3cc(C)ns3)nc3[nH]cc(C)c23)C1 [Example 21, 1-((3S,4R)-4-fluoro-3-((5-methyl-2-((3-methylisothiazol-5-yl)amino)-7H-pyrrolo[2,3-d]pyrimidin-4-yl)oxy)piperidin-1-yl)prop-2-en-1-one]
